19 compounds from patent US10479780B2, “Aminopyrazole derivatives” (Chugai Seiyaku Kabushiki Kaisha, priority 2015, dated 2019) can be followed below.

SMILES strings stand for the structures. pIC50: −log10 of the molar value.

Holding throughout (format): biochemical
For assay [1], the target named is T1, human Lck enzyme (Homo sapiens, UniProt P06239).
T1 construct: purchased Carna Biosciences, Inc. 08-170
The assay is described as follows: Lck enzyme inhibitory activity (time-resolved fluorometry, biotinylated peptide phosphorylation). To be noted: biotinylated peptide phosphorylation, read-out: LCK_IC50. The method, then: (§1) 3. Lck Enzyme Inhibitory Activity Lck inhibitory activity was determined based on activity of inhibiting phosphorylation reaction of a biotinylated peptide (EGPWLEEEEEAYGWMDF) using a human Lck enzyme (manufactured by Carna Biosciences, Inc., cat 08-170). The phosphorylated biotinylated peptide was detected by time-resolved fluorometry using an anti-phosphorylated tyrosine antibody conjugated to europium cryptate, and streptavidin conjugated to XL665, an allophycocyanin derivative. The 50% inhibitory concentration (IC50) was calculated from the inhibition rate relative to the control group without containing the test substance.

Assay [2] concerns the target T2, human Yes1 enzyme (Homo sapiens, UniProt P07947).
T2 construct: made in house
The assay is described as follows: Yes1 enzyme inhibitory activity (time-resolved fluorometry, biotinylated peptide phosphorylation). The following applies: biotinylated peptide phosphorylation, read-out: YES_IC50. The method, then: as §1, with “1. Yes1” for “3. Lck”, “Yes1” for “Lck”, “prepared using a baculovirus expression system.” for “(manufactured by Carna Biosciences, Inc., cat 08-170).”

For assay [3], the target named is T3, human Src enzyme (Homo sapiens, UniProt P12931).
T3 construct: purchased Carna Biosciences, Inc. 08-173
The assay is described as follows: Src enzyme inhibitory activity (time-resolved fluorometry, biotinylated peptide phosphorylation). The following applies: biotinylated peptide phosphorylation, read-out: SRC_IC50. The method, then:
as §1, with “2. Src” for “3. Lck”, “Src” for “Lck”, “08-173).” for “08-170).”

T1 sequence (P06239 whole entry): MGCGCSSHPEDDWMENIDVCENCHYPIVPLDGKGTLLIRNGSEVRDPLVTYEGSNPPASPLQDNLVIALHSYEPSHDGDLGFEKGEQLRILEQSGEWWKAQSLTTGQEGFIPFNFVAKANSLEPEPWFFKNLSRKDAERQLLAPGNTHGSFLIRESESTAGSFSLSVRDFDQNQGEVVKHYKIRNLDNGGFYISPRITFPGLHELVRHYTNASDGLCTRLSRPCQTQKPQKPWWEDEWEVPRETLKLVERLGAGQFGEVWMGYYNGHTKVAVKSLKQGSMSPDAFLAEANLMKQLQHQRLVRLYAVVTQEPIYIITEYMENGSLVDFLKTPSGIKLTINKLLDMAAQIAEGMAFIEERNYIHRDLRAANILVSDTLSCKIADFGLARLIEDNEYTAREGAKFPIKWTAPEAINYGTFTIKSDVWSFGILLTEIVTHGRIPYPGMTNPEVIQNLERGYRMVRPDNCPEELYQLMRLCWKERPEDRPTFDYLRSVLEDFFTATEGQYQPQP
T3 sequence (P12931 whole entry): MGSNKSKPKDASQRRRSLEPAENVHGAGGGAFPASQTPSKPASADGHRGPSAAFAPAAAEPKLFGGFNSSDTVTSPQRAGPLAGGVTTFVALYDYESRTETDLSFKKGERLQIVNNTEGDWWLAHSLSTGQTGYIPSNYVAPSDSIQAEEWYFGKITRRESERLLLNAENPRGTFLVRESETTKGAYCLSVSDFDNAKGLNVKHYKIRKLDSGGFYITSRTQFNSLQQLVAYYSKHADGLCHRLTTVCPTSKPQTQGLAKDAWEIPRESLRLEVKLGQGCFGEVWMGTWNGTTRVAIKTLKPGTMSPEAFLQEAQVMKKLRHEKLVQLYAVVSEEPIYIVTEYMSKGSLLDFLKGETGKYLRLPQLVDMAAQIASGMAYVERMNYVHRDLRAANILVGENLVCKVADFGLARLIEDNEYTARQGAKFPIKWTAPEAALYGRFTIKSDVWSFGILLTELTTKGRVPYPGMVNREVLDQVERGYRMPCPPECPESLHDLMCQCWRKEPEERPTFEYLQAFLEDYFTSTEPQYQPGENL
T2 sequence (P07947 whole entry): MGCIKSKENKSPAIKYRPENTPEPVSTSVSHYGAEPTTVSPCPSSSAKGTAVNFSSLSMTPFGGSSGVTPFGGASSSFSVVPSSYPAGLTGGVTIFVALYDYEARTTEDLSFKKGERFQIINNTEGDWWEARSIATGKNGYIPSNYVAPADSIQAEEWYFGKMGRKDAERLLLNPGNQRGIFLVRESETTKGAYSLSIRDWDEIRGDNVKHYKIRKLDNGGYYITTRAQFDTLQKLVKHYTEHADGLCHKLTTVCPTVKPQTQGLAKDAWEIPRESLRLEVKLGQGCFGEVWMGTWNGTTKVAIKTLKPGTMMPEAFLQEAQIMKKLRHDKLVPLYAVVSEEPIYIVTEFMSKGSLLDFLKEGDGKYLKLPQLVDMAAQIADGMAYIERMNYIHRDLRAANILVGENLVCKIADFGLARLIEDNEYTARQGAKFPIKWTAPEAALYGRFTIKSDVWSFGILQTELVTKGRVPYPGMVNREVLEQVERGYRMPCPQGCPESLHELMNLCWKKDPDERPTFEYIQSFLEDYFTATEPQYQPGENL

`Cc1cc(Oc2cccc(F)c2F)ccc1-n1ncc(C(=O)c2cc3cc(C4CCN(C(C)C)CC4)c(F)cc3[nH]2)c1N` [Example 4-2-002, [5-amino-1-[4-(2,3-difluorophenoxy)-2-methylphenyl]pyrazol-4-yl]-[6-fluoro-5-(1-propan-2-ylpiperidin-4-yl)-1H-indol-2-yl]methanone]: the pIC50 was 8.43 in assay [1], 9.05 in assay [2] and 8.46 in assay [3].
As for `Cc1cc(Oc2cccc(Cl)c2)ccc1-n1ncc(C(=O)c2cc3cc(C4CCN(C(C)C)CC4)c(F)cc3[nH]2)c1N` [Example 4-2-003, [5-amino-1-[4-(3-chlorophenoxy)-2-methylphenyl]pyrazol-4-yl]-[6-fluoro-5-(1-propan-2-ylpiperidin-4-yl)-1H-indol-2-yl]methanone], the pIC50 in assay [1] was 8.68; in assay [2], 8.85; in assay [3], 8.19.
Turning to `CC(C)N1CCC(c2cc3cc(C(=O)c4cnn(-c5ccc(Oc6cccc(F)c6F)cc5)c4N)[nH]c3cc2F)CC1` [Example 4-2-004, [5-amino-1-[4-(2,3-difluorophenoxy)phenyl]pyrazol-4-yl]-[6-fluoro-5-(1-propan-2-ylpiperidin-4-yl)-1H-indol-2-yl]methanone], the pIC50 in assay [1] is 8.64; in assay [2], 9.03; in assay [3] it was 8.12.
In the same order, the values of `CC(C)N1CCC(c2cc3cc(C(=O)c4cnn(-c5ccc(Oc6cccc(Cl)c6)cc5)c4N)[nH]c3cc2F)CC1` [Example 4-2-005, [5-amino-1-[4-(3-chlorophenoxy)phenyl]pyrazol-4-yl]-[6-fluoro-5-(1-propan-2-ylpiperidin-4-yl)-1H-indol-2-yl]methanone] are 8.30, 8.82 and 7.70.
Turning to `CC(C)N1CCC(c2cc3cc(C(=O)c4cnn(-c5ccc(Oc6cccc(F)c6)cc5)c4N)[nH]c3cc2F)CC1` [Example 4-2-006, [5-amino-1-[4-(3-fluorophenoxy)phenyl]pyrazol-4-yl]-[6-fluoro-5-(1-propan-2-ylpiperidin-4-yl)-1H-indol-2-yl]methanone], the values for the pIC50 in assay [1], in assay [2] and in assay [3] were 8.48, 8.89 and 7.92, respectively.
In the same order, the values of `CC(C)N1CCC(c2cc3cc(C(=O)c4cnn(-c5ccc(Oc6cccc(F)c6F)cc5F)c4N)[nH]c3cc2F)CC1` [Example 4-2-007, [5-amino-1-[4-(2,3-difluorophenoxy)-2-fluorophenyl]pyrazol-4-yl]-[6-fluoro-5-(1-propan-2-ylpiperidin-4-yl)-1H-indol-2-yl]methanone] are 8.44, 9.04 and 7.35.
In the same order, the values of `CC(C)N1CCC(c2cc3cc(C(=O)c4cnn(-c5ccc(Oc6ccccc6Cl)cc5F)c4N)[nH]c3cc2F)CC1` [Example 4-2-008, [5-amino-1-[4-(2-chlorophenoxy)-2-fluorophenyl]pyrazol-4-yl]-[6-fluoro-5-(1-propan-2-ylpiperidin-4-yl)-1H-indol-2-yl]methanone] are 8.60, 8.96 and 8.27.
For `CC(C)N1CCC(c2cc3cc(C(=O)c4cnn(-c5ccc(Oc6ccccc6F)cc5F)c4N)[nH]c3cc2F)CC1` [Example 4-2-009, [5-amino-1-[2-fluoro-4-(2-fluorophenoxy)phenyl]pyrazol-4-yl]-[6-fluoro-5-(1-propan-2-ylpiperidin-4-yl)-1H-indol-2-yl]methanone], the pIC50 in assay [1] is 8.47; in assay [2] it was 9.09; in assay [3], 8.29.
As for `Cc1cc(Oc2ccccc2F)ccc1-n1ncc(C(=O)c2cc3cc(F)c(C4CCN(C(C)C)CC4)cc3[nH]2)c1N` [Example 4-2-010, [5-amino-1-[4-(2-fluorophenoxy)-2-methylphenyl]pyrazol-4-yl]-[5-fluoro-6-(1-propan-2-ylpiperidin-4-yl)-1H-indol-2-yl]methanone], the pIC50 is 8.72 in assay [1], 8.92 in assay [2] and 8.33 in assay [3].
In the same order, the values of `Cc1cc(Oc2cccc(F)c2F)ccc1-n1ncc(C(=O)c2cc3cc(F)c(C4CCN(C(C)C)CC4)cc3[nH]2)c1N` [Example 4-2-011, [5-amino-1-[4-(2,3-difluorophenoxy)-2-methylphenyl]pyrazol-4-yl][5-fluoro-6-(1-propan-2-ylpiperidin-4-yl)-1H-indol-2-yl]methanone] are 8.57, 8.66 and 7.96.
In the case of `Cc1cc(Oc2ccccc2Cl)ccc1-n1ncc(C(=O)c2cc3cc(F)c(C4CCN(C(C)C)CC4)cc3[nH]2)c1N` [Example 4-2-012, [5-amino-1-[4-(2-chlorophenoxy)-2-methylphenyl]pyrazol-4-yl]-[5-fluoro-6-(1-propan-2-ylpiperidin-4-yl)-1H-indol-2-yl]methanone], the pIC50 is 8.31 in assay [1], 8.66 in assay [2] and 8.03 in assay [3].
In the same order, the values of `Cc1cc(Oc2cccc(Cl)c2)ccc1-n1ncc(C(=O)c2cc3cc(F)c(C4CCN(C(C)C)CC4)cc3[nH]2)c1N` [Example 4-2-013, [5-amino-1-[4-(3-chlorophenoxy)-2-methylphenyl]pyrazol-4-yl]-[5-fluoro-6-(1-propan-2-ylpiperidin-4-yl)-1H-indol-2-yl]methanone] are 8.01, 8.96 and 7.31.
In the same order, the values of `Cc1cc(-n2ncc(C(=O)c3cc4cc(F)c(C5CCN(C(C)C)CC5)cc4[nH]3)c2N)ccc1Oc1ccccc1F` [Example 4-2-014, [5-amino-1-[4-(2-fluorophenoxy)-3-methylphenyl]pyrazol-4-yl]-[5-fluoro-6-(1-propan-2-ylpiperidin-4-yl)-1H-indol-2-yl]methanone] are 7.21, 7.74 and 6.29.
In the same order, the values of `Cc1cc(Oc2ccccc2F)ccc1-n1ncc(C(=O)c2cc3cc(F)c(NS(=O)(=O)CCCF)cc3[nH]2)c1N` [Example 4-2-015, N-[2-[5-amino-1-[4-(2-fluorophenoxy)-2-methylphenyl]pyrazole-4-carbonyl]-5-fluoro-1H-indol-6-yl]-3-fluoropropane-1-sulfonamide] are 8.00, 9.17 and 7.72.
Take `Cc1cc(Oc2cccc(F)c2F)ccc1-n1ncc(C(=O)c2cc3cc(F)c(NS(=O)(=O)CCCF)cc3[nH]2)c1N` [Example 4-2-016, N-[2-[5-amino-1-[4-(2,3-difluorophenoxy)-2-methylphenyl]pyrazole-4-carbonyl]-5-fluoro-1H-indol-6-yl]-3-fluoropropane-1-sulfonamide]: the pIC50 was 7.72 in assay [1], 8.68 in assay [2] and 7.15 in assay [3].
In the same order, the values of `Cc1cc(Oc2ccccn2)ccc1-n1ncc(C(=O)c2cc3cc(F)c(NS(=O)(=O)CCCF)cc3[nH]2)c1N` [Example 4-2-017, N-[2-[5-amino-1-(2-methyl-4-pyridin-2-yloxyphenyl)pyrazole-4-carbonyl]-5-fluoro-1H-indol-6-yl]-3-fluoropropane-1-sulfonamide] are 7.77, 9.26 and 7.59.
In the same order, the values of `Nc1c(C(=O)c2cc3cc(F)c(NS(=O)(=O)CCCF)cc3[nH]2)cnn1-c1ccc(Oc2ccccn2)cc1Cl` [Example 4-2-018, N-[2-[5-amino-1-(2-chloro-4-pyridin-2-yloxyphenyl)pyrazole-4-carbonyl]-5-fluoro-1H-indol-6-yl]-3-fluoropropane-1-sulfonamide] are 7.82, 9.28 and 7.66.
`Cc1cc(Oc2ccccc2F)cc(F)c1-n1ncc(C(=O)c2cc3cc(F)c(NS(=O)(=O)CCCF)cc3[nH]2)c1N` [Example 4-2-019, N-[2-[5-amino-1-[2-fluoro-4-(2-fluorophenoxy)-6-methylphenyl]pyrazole-4-carbonyl]-5-fluoro-1H-indol-6-yl]-3-fluoropropane-1-sulfonamide]: the pIC50 in assay [1] is 7.40; in assay [2], 8.28; in assay [3] it was 7.14.
In the same order, the values of `Cc1cc(Oc2ccccc2F)ncc1-n1ncc(C(=O)c2cc3cc(F)c(NS(=O)(=O)CCCF)cc3[nH]2)c1N` [Example 4-2-020, N-[2-[5-amino-1-[6-(2-fluorophenoxy)-4-methylpyridin-3-yl]pyrazole-4-carbonyl]-5-fluoro-1H-indol-6-yl]-3-fluoropropane-1-sulfonamide] are 7.96, 8.70 and 7.23.
